Laboratory results from US11061016B2, “In vitro model for pathological or physiologic conditions” (HemoShear, LLC, priority 2012, dated 2021).

Tests used:
hepatocytes [1] = experiment: Fatty liver model: measurement of total triglycerides; assay type: cell-based, rat; details: high insulin/glucose media; pioglitazone 1.5 μM; to levels similar to healthy conditions
Description: Triglyceride content was assessed using a commercially available colorimetric assay kit (Cayman Triglyceride Colorimetric Assay Kit, Cat #10010303). At the end of the treatment period, cells were collected from the porous membranes by scraping with a rubber policeman and PBS, after which they were centrifuged (2,000×g for 10 minutes at 4° C.). The cell pellets were resuspended in 100 μl of cold diluted Standard Diluent from the triglyceride assay kit and sonicated 20 times at one second bursts. The cell suspension was then centrifuged at 10,000×g for 10 minutes at 4° C. The supernatant was removed and used for the assay as per the manufacturer's protocol and normalized to protein content from the same samples.

hepatocytes [2] = experiment: Fatty liver model: RT-PCR metabolic gene expression; details: high insulin/glucose disease conditions; pioglitazone 1.5 μM

- total triglyceride content of hepatocytes (hepatocytes [1]): reduced
- expression of metabolic genes such as Cyp3A2 (hepatocytes [2]): restored
Structure (SMILES): CCc1ccc(CCOc2ccc(CC3SC(=O)NC3=O)cc2)nc1 (centres unmarked) [Pioglitazone, pioglitazone]
